Experimental data published in patent US9272016B2, “Methods to enhance RNAi oligonucleotide delivery to respiratory epithelial cells” (University of Iowa Research Foundation, priority 2012, dated 2016).
Where a SMILES comes first, the peptide text is derived from it. [ ]: non-standard residue; d: D form. Nle = CCCC[C@H](N)C(=O)O; d = 2'-deoxy (DNA); r = 2'-OH (RNA); {P} = phosphate

What was measured:
Format in all cases: cell-based
HPRT mRNA [1] = assay: Pretreatment of well-differentiated human airway epithelia before HPRT siRNA transfection, qPCR; conditions: for reduction in HPRT mRNA levels: 6 h drug pretreatment at Cmap or literature concentration, then siRNA-Transductin 24 h (data not shown); for decrease in HPRT mRNA levels: vs nontargeting controls (FIG. 5c)
Procedure: (§1) For airway epithelia that were either well or poorly differentiated, transfection was done mostly according to the manufacturer's protocol. In all cases, the apical surface of epithelia was washed twice with PBS before adding the transfection mixture to the apical surface. The mixture was then left on the cells for 24 h for all transfection reagents. For PK1 cells, reverse transfection was performed in a 48-well plate by first adding the siRNA-RNAiMAX reagent mixture onto the plate and then adding the dispersed cells (40,000 cells) on top of the mixture and allowing the cells to adhere and establish growth for 24 h. Before some transfections, pretreatment of cells with various chemicals were performed: Keratinocyte Growth Factor (KGF; Prospec, East Brunswick, N.J.) 50 ng/ml added both apically and basolaterally for 24 h; EGTA 6 mM added apically for 30 m; N-Acetyl-L-Leucyl-L-Leucyl-L-Norleucinal (LLnL; ICN Biochemicals, Inc, Costa Mesa, Calif.) 40 μM added both apically and basolaterally for 24 hrs; human Epidermal Growth Factor (EGF; Sigma-Aldrich, St. Louis, Mo.) 100 μg/ml, added apically for 15 m.
(§2) Total RNA was isolated using SV96 RNA isolation kit (Promega), according to manufacturer's protocol. Two hundred fifty ng of total RNA were reverse transcribed using oligo (dT) (Roche, Indianapolis, Ind.) and random hexamers (Invitrogen, Grand Island, N.Y.) and Superscript II (Invitrogen, Grand Island, N.Y.) according to manufacturer's instructions. One-fifteenth of the cDNA was then amplified and analyzed by Taqman assay in the 7900 Real Time PCR System (Applied Biosystems) using synthesized primer-probe pairs (IDT, Coralville, Iowa), reaction buffer and Immolase DNA polymerase (Bioline, Taunton, Mass.). The reaction mix was contained in a total volume of 10 μl and the reaction condition was an initial cycle of 95° C. for 10 min, then 40 cycles of 95° C. for 15 s and 60° C. for 1 min. All data were normalized to the internal standard, RPL4 mRNA for pig airway samples and SFRS9 mRNA for human airway samples. Absolute quantification of an mRNA target sequence within an unknown sample was determined by reference to a standard curve. The standard curve was based on the real-time PCR amplification of standard amounts of the specific gene in a control NC1 cDNA.
(§3) Wortmannin was purchased from Sigma (St. Louis, Mo.) as a ready to use solution. […] Monensin was purchased from Sigma (St. Louis, Mo.) and was dissolved in water. For experiments with drugs, the cells were pre-treated with drugs for 6 h usually at a concentration that was used in the Cmap study (Lamb J et al., The connectivity map: Using gene-expression signatures to connect small molecules, genes, and disease. Science 2006; 313(5795):1929-1935) or in other published studies. After the drug treatment, the cells were transfected with siRNA as described before.

HPRT mRNA [2] = assay: Pretreatment of well differentiated pig airway epithelia before HPRT siRNA transfection, qPCR; conditions: for reduction in HPRT mRNA levels: 6 h drug pretreatment at Cmap or literature concentration, then siRNA-Transductin 24 h (data not shown); for silencing of HPRT mRNA after pretreatment: well differentiated PAE, KGF 50 ng/ml 24 h, EGTA 6 mM 30 m, LLnL 40 μM 24 hrs, then 250 nM HPRT siRNA with RNAiMAX or Transductin
Procedure: as §1, §2, §3

human airway epithelia = assay: Confocal imaging of DIG-labeled siRNA uptake in human airway epithelia; conditions: cells transfected with DIG-siRNA, fluorescent images, species not stated (data not shown)
Procedure: The primary human airway epithelia grown at air-liquid interface were transfected with the DIG-labeled siRNA at a concentration of 250 ng/ml after complexing with Transductin. The transfection mixture was left on the apical surface for 2 h. At the end of this period, the cells were fixed in 2% formaldehyde, permeabilized in 0.2% Triton-x-100 and blocked in 1% BSA for 1 h. The cells were then stained with mouse antibody to DIG (Roche Biochemicals) for 1 h followed by either Alexa 488 labeled goat anti-mouse secondary antibody for 1 h followed by Alexa 488 labeled rabbit […] antibody (Invitrogen) for 1 or in some cases with Alexa 564 goat anti-mouse secondary antibody for 1 h. The cells were finally stained with nuclear stain, ToPro 3 for 10 minutes. The filter, containing the cells, was removed from the culture insert by cutting the edges with razor blade and then mounted onto a slide by the use of Vectashield. The slide was visualized by confocal microscopy.

SIN3A = assay: LY-294002 pretreatment of human airway cells before SIN3A siRNA transfection, qPCR; design: dose or concentration left out as unconfirmed; conditions: siRNA with Transductin, 24 h, vs nontargeting control (FIG. 12a)
Procedure: (§4) For airway epithelia that were either well or poorly differentiated, transfection was done mostly according to the manufacturer's protocol. In all cases, the apical surface of epithelia was washed twice with PBS before adding the transfection mixture to the apical surface. The mixture was then left on the cells for 24 h for all transfection reagents. For PK1 cells, reverse transfection was performed in a 48-well plate by first adding the siRNA-RNAiMAX reagent mixture onto the plate and then adding the dispersed cells (40,000 cells) on top of the mixture and allowing the cells to adhere and establish growth for 24 h. […]
(§5) Total RNA was isolated using SV96 RNA isolation kit (Promega), according to manufacturer's protocol. […] One-fifteenth of the cDNA was then amplified and analyzed by Taqman assay in the 7900 Real Time PCR System (Applied Biosystems) using synthesized primer-probe pairs (IDT, Coralville, Iowa), reaction buffer and Immolase DNA polymerase (Bioline, Taunton, Mass.). […] Absolute quantification of an mRNA target sequence within an unknown sample was determined by reference to a standard curve. […]
(§6) Wortmannin was purchased from Sigma (St. Louis, Mo.) as a ready to use solution. […]

CFTR = assay: LY-294002 pretreatment of human airway cells before CFTR siRNA transfection, qPCR; design: dose or concentration left out as unconfirmed; conditions: siRNA with Transductin, 24 h, vs nontargeting control (FIG. 12b)
Procedure: as §4, §5, §6

IL-8 = IL-8 siRNA transfection of poorly differentiated pig airway epithelia (2 and 5 days old), qPCR; conditions: for silencing of IL-8: 250 ng siRNA with Transductin, 24 h (FIG. 11a); for knockdown of IL-8: poorly differentiated pig airway cultures, siRNA 250 ng, 24 h (FIG. 9a)
Procedure: as §1
as §2, with “cDNA. PCR efficiency for all reactions was within the acceptable margin of 90-110%. All the results of the samples were presented as remaining mRNA level in comparison to the mRNA level in the control samples (NC1), which was normalized to 100%.” for “cDNA.”

pig HPRT = assay: Dicer-substrate siRNA silencing in PK1 cells, qPCR of HPRT mRNA; conditions: reverse transfection with RNAiMAX, 1 nM and 10 nM siRNA, 24 h, vs nontargeting control NC1
Procedure: as §4, §5
siRNAs were designed and synthesized to specifically target pig HPRT (ssHPRT) and IL-8 (IL-8 1098 and IL-8 1466). […] Quantitative real-time PCR was performed to measure the extent of mRNA reduction. […]

In the case of `O=C1CC[C@@]2(O)[C@H]3Cc4ccc(O)c5c4[C@@]2(CCN3CC2CC2)[C@H]1O5` [naltrexone], the “reduction in HPRT mRNA levels” value (HPRT mRNA [1]; human epithelia) is reported as “no reduction” and the “reduction in HPRT mRNA levels” value (HPRT mRNA [2]; pig epithelia) is reported as “no reduction”.
For `COC[C@H]1OC(=O)c2coc3c2[C@@]1(C)C1=C(C3=O)[C@@H]2CCC(=O)[C@@]2(C)C[C@H]1OC(C)=O` [wortmannin], the “decrease in HPRT mRNA levels” value (HPRT mRNA [1]; human airway cells, 10 nM pretreatment) was “about 20%” and the “decrease in HPRT mRNA levels” value (HPRT mRNA [1]; human airway cells, 40 nM pretreatment) was ~30%.
In the case of `O=c1cc(N2CCOCC2)oc2c(-c3ccccc3)cccc12` [LY-294002, 2-morpholin-4-yl-8-phenylchromen-4-one], the siRNA uptake (human airway epithelia) is reported as “improved siRNA uptake”, the “reduction in mRNA levels of SIN3A” value (SIN3A) is reported as 25% and the “range of silencing effects (inhibition)” value (HPRT mRNA [1]; human airway cells, several donors (data not shown)) is reported as 10-55%. For the same compound, the “silencing of HPRT” value (HPRT mRNA [1]; human epithelia, 10 μM for 6 h apically, vs nontargeting control (FIG. 5a)) was “about 40%”, the “range of silencing effects (inhibition)” value (HPRT mRNA [2]; pig airway cells, several donors (data not shown)) was 10-20% and the “silencing of HPRT” value (HPRT mRNA [2]; pig epithelia, 10 μM for 6 h apically, vs nontargeting control (FIG. 5b)) was “about 20%”. The “reduction in mRNA levels of CFTR” value (CFTR) was 20%.
In the case of `CC(=O)O[C@H]1C(=O)[C@@]2(C)[C@H]([C@H](OC(=O)c3ccccc3)[C@]3(O)C[C@H](OC(=O)[C@H](O)[C@@H](NC(=O)c4ccccc4)c4ccccc4)C(C)=C1C3(C)C)[C@]1(OC(C)=O)CO[C@@H]1C[C@@H]2O` [paclitaxel], the “reduction in HPRT mRNA levels” value (HPRT mRNA [1]; human epithelia) is reported as “no reduction” and the “reduction in HPRT mRNA levels” value (HPRT mRNA [2]; pig epithelia) is reported as “no reduction”.
For `O=C(O)CN(CCOCCOCCN(CC(=O)O)CC(=O)O)CC(=O)O` [EGTA], the “silencing of HPRT mRNA after pretreatment” value (HPRT mRNA [2]) was “did not result in silencing”.
With `C=C1CC[C@H](O)C/C1=C/C=C1\CCC[C@]2(C)[C@@H]([C@H](C)/C=C/[C@H](C)C(C)C)CC[C@@H]12` [ergocalciferol] the “reduction in HPRT mRNA levels” value (HPRT mRNA [1]; human epithelia) was “no reduction” and the “reduction in HPRT mRNA levels” value (HPRT mRNA [2]; pig epithelia) was “no reduction”.
In the case of “IL-8 1466: Dicer-substrate siRNA against pig IL-8, SEQ ID NO: 7 and 8 (chain 1 UGAGUGUAACUAUAGAACAUUUACA; chain 2 UGUAAAUGUUCUAUAGUUACACUCACA; chain 1: sugars from the 5' end r23 d2, 5' {P}, backbone not given here; chain 2: RNA, backbone not given here)”, the “silencing of IL-8” value (IL-8; 2-day old pig airway epithelia) is reported as “Silencing of IL-8 is seen”, the “silencing of IL-8” value (IL-8; 5-day old pig airway epithelia) is reported as “not in 5-day old epithelia” and the “knockdown of IL-8” value (IL-8) is reported as “Knockdown of IL-8 is seen”.
With “ssHPRT: Dicer-substrate siRNA against pig HPRT, SEQ ID NO: 1 and 2 (chain 1 CCAGUAAAGUUAUCACAUGUUCUAG; chain 2 CUAGAACAUGUGAUAACUUUACUGNGG; chemistry not fully specified)” the “decrease of targeting mRNA (HPRT)” value (pig HPRT) was “more than 90%”.
For `CCCC[C@@H](C=O)NC(=O)[C@H](CC(C)C)NC(=O)[C@H](CC(C)C)NC(C)=O` [LLnL, N-Acetyl-L-Leucyl-L-Leucyl-L-Norleucinal] (Ac-Leu-Leu-[Nle]-aldehyde), the “silencing of HPRT mRNA after pretreatment” value (HPRT mRNA [2]) was “no effect on silencing”.
With `O=S(=O)(c1cccc2cnccc12)N1CCCNCC1` [fasudil] the “reduction in HPRT mRNA levels” value (HPRT mRNA [1]; human epithelia) was “no reduction” and the “reduction in HPRT mRNA levels” value (HPRT mRNA [2]; pig epithelia) was “no reduction”.
With “IL-8 1098: Dicer-substrate siRNA against pig IL-8, SEQ ID NO: 5 and 6 (chain 1 GGCAAAUUGUUAAACGAACAGAATA; chain 2 UAUUCUGUUCGUUUAACAAUUUGCCAA; chain 1: sugars from the 5' end r23 d2, 5' {P}, backbone not given here; chain 2: RNA, backbone not given here)” the “silencing of IL-8” value (IL-8; 2-day old pig airway epithelia) was “Silencing of IL-8 is seen”, the “silencing of IL-8” value (IL-8; 5-day old pig airway epithelia) was “not in 5-day old epithelia” and the “knockdown of IL-8” value (IL-8) was “Knockdown of IL-8 is seen”.
